From patent publication US9296691B2, “Inhibitors of p75 receptor and their uses” (Horacio Uri Saragovi, priority 2010, dated 2016)

Tested on: nnr5 cells
Experiment: Pro-NTF killing assay (MTT), nnr5 cells
Format: cell-based
Details: pro-NTF 50 nM + I-B 20 μM, 72 hours
Experimental: The effect of I-B on the pro-apoptotic function of pro-NGF or pro-BDNF was tested in functional MTT assays measuring cell metabolism (FIG. 1B).
Cells (5,000 cells/well) were cultured in 96-well plates (Falcon, Lincoln Park, N.J.) in normal culture media (RPMI1640, Hepes, Glutamine, 5% serum). Wells were supplemented with NGF, BDNF, pro-NGF, or pro-BDNF (Alomone Labs) (50 nM final), in the presence or absence of I-B (20 μM final). Wells containing all culture conditions but no cells were used as blanks. The growth/survival profile of the cells was quantified using MTT (Sigma) 72 hours after plating. Optical density readings of MTT were done in a Benchmark Plus microplate Spectrophotometer (BioRad) at 595 nm with blanks subtracted.

## CC(C)NC(=O)N(C(=O)Cn1cnc2c1c(=O)n(C)c(=O)n2C)C(C)C [I-B, 1,3-Diisopropyl-1-[2-(1,3-dimethyl-2,6-dioxo-1,2,3,6-tetrahydro-purin-7-yl)-acetyl]-urea]
  cell viability (MTT) in presence of pro-NGF or pro-BDNF: prevented the loss of cell viability
